Drawing on ChEMBL document CHEMBL1132598, “Synthesis, corticotropin-releasing factor receptor binding affinity, and pharmacokinetic properties of triazolo-, imidazo-, and pyrrolopyrimidines and -pyridines” (J Med Chem, 1999), this text covers Ki for 91 molecules.

Molecules are shown by their SMILES.

In this assay the target is T1, Corticotropin-releasing factor receptor 1 (Homo sapiens, UniProt P34998).
T1 sequence (P34998 whole entry): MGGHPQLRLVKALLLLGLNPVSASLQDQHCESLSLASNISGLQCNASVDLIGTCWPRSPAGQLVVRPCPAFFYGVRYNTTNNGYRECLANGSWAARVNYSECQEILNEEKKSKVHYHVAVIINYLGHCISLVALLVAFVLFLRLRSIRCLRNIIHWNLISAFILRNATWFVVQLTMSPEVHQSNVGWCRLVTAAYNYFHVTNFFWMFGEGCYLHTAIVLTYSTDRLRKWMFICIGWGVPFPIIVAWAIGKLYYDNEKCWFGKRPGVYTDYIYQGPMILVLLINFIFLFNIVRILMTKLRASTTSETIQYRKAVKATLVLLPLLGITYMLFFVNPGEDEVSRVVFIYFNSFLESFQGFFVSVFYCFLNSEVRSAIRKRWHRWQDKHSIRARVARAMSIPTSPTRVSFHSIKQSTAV
Put plainly: Binding affinity to recombinant human Corticotropin releasing factor receptor 1 (hCRF1) expressed in 293EBNA cells. In kind it is cell-based.
Consider `COCCNc1nc(C)nc2c1nnn2-c1ccc(C(C)C)cc1Br`, for which the Ki (commonly the dissociation constant of the complex between target and ligand, obtained from inhibition or displacement) turned out to be 242 nM.

As for `COCCN(CCOC)c1nc(C)nc2c1nnn2-c1c(Br)cc(OC)cc1OC`, the inhibition constant Ki amounted to 28.3 nM.

In the case of `Cc1nc(N(CCO)CCO)c2nnn(-c3ccc(C(C)C)cc3Br)c2n1`, the inhibition constant (Ki) stood at 3460 nM.

For the molecule `CCCCC(CC)Nc1nc(C)nc2c1nnn2-c1ccc(C(C)C)cc1Br` (stereo unspecified), the Ki amounted to 3.1 nM.

Turning to `COCCN(CCOC)c1nc(C)nc2c1nnn2-c1ccc(C(C)C)cc1SC`, the Ki is 15.3 nM.

In the case of `CCCC(CC)Nc1nc(C)nc2c1nnn2-c1ccc(C(C)C)cc1Br` (stereo unspecified), the inhibitory constant (Ki) was found to be 2.8 nM.

`CCCCC(CC)Nc1nc(C)nc2c1nnn2-c1c(C)cc(C)cc1C` (stereo unspecified): the Ki came to 7.6 nM.

For the molecule `COCC(COC)N(C)c1nc(C)nc2c1nnn2-c1ccc(C(C)C)cc1Br`, the inhibition constant Ki turned out to be 21.3 nM.

Take `CCN(c1nc(C)nc2c1nnn2-c1ccc(C(C)C)cc1Br)C(COC)COC`: the inhibition constant Ki turned out to be 123 nM.

In the case of `CCC(COC)Nc1nc(C)nc2c1nnn2-c1c(C)cc(C)cc1C` (stereo unspecified), the Ki is 59.4 nM.

Consider `Cc1nc(NC2CCCC2)c2nnn(-c3ccc(C(C)C)cc3Br)c2n1`, for which the inhibition constant Ki came out at 120 nM.

With `COCCN(CCOC)c1cc(C)nc2c1nnn2-c1ccc(C(C)C)cc1Br`, the Ki was found to be 4.7 nM.

With `CCN(CCOC)c1nc(C)nc2c1nnn2-c1c(C)cc(C)cc1C`, the Ki is 20.7 nM.

In the case of `Cc1cc(C)c(-n2c(C)c(C)c3c(N4CCOCC4)nc(C)nc32)c(C)c1`, the inhibition constant Ki was found to be 201 nM.

With `CCCCc1nc2c(N(CC)CCCC)nc(C)nc2n1-c1c(Cl)cc(OC)cc1OC`, the Ki was 22 nM.

Turning to `Cc1nc(N2CCCC2)c2nnn(-c3ccc(C(C)C)cc3Br)c2n1`, the Ki was 194 nM.

As to `CCCCN(CC)c1nc(C)nc2c1ncn2-c1c(C)cc(C)cc1C`, the inhibition constant (Ki) amounted to 25 nM.

For `COCCCN(CCOC)c1nc(C)nc2c1nnn2-c1ccc(C(C)C)cc1Br`, the Ki was found to be 66.9 nM.

For the molecule `CCN(CCOC)c1nc(C)nc2c1ncn2-c1ccc(C(C)C)cc1Br`, the inhibition constant (Ki) amounted to 9.2 nM.

With `CCN(CC)c1nc(C)nc2c1nnn2-c1ccc(C(C)C)cc1Br`, the inhibition constant Ki was found to be 25.3 nM.

Take `COCCN(CCOC)c1nc(C)nc2c1ncn2-c1ccc(C(C)C)cc1Br`: the Ki stood at 5.9 nM.

As to `CCCCN(CC)c1ncnc2c1nnn2-c1ccc(C(C)C)cc1Br`, the Ki came out at 287 nM.

On to `COCCN(CCOC)c1nc(C)nc2c1nnn2-c1c(C)cc(C)nc1C`, for which the inhibitory constant (Ki) worked out at 416 nM.

In the case of `CCCCN(CC)c1nc(C)nc2c1nnn2-c1ccc(C(C)=O)cc1Br`, the Ki turned out to be 33.7 nM.

As for `CCCC(CN(C)C)Nc1nc(C)nc2c1nnn2-c1ccc(C(C)C)cc1Br` (stereo unspecified), the Ki is 38.7 nM.

For the molecule `CCCC(CCC)Nc1nc(C)nc2c1ncn2-c1ccc(C(C)C)cc1Br`, the Ki amounted to 3.6 nM.

Consider `COCCN(Cc1cccnc1)c1nc(C)nc2c1nnn2-c1ccc(C(C)C)cc1Br`, for which the Ki came out at 48.5 nM.

For `CCC(Nc1nc(C)nc2c1nnn2-c1ccc(C(C)C)cc1Br)C(=O)OC` (stereo unspecified), the inhibition constant Ki came to 19.4 nM.

With `CCC(CO)Nc1nc(C)nc2c1nnn2-c1ccc(C(C)C)cc1Br` (stereo unspecified), the inhibitory constant (Ki) was 25.3 nM.

For `CCCC(CC)Nc1nc(C)nc2c1ncn2-c1ccc(C(C)C)cc1Br` (stereo unspecified), the Ki came out at 4.4 nM.

As to `CCCCN(CCCC)c1nc(C)nc2c1ncn2-c1ccc(C(C)C)cc1Br`, the Ki was found to be 6.1 nM.

For the molecule `COCCN(CCOC)c1nc(C)nc2c1nnn2-c1ccc(OC(F)(F)F)cc1Br`, the inhibition constant Ki is 33.2 nM.

In the case of `CCCCN(CC)c1nc(C)nc2c1c(C)cn2-c1c(C)cc(C)cc1C` [CP-154526], the inhibition constant (Ki) was found to be 1.61 nM.

Consider `COCC(COC)Nc1nc(C)nc2c1nnn2-c1ccc(C(C)C)cc1Br`, for which the Ki was determined as 10.3 nM.

As for `COCCN(CCOC)c1nc(C)nc2c1nc(C)n2-c1ccc(C(C)C)cc1Br`, the inhibitory constant (Ki) stood at 6.7 nM.

Take `CCC(CC)Oc1nc(C)nc2c1ncn2-c1ccc(C(C)C)cc1Br`: the Ki was determined as 3.5 nM.

As for `CCCCNc1nc(C)nc2c1nnn2-c1ccc(C(C)C)cc1Br`, the inhibition constant Ki worked out at 69.6 nM.

Turning to `CCCC(CCC)Nc1nc(C)nc2c1nnn2-c1ccc(Br)cc1Br`, the Ki was 0.8 nM.

Take `COCCN(CCO)c1nc(C)nc2c1nnn2-c1ccc(C(C)C)cc1Br`: the Ki worked out at 64 nM.

On to `CCCCN(CC)c1nc(C)nc2c1nnn2-c1c(Br)cc(OC)cc1OC`, for which the Ki came out at 3 nM.

Consider `CCCCC(CCCC)Nc1nc(C)nc2c1nnn2-c1ccc(C(C)C)cc1Br`, for which the inhibitory constant (Ki) is 4.5 nM.

In the case of `CCCCN(CCCC)c1nc(C)nc2c1nnn2-c1ccc(C(C)C)cc1Br`, the inhibition constant Ki was 32.5 nM.

As to `CCCCN(CC)c1nc(C)nc2c1nc(C(F)(F)F)n2-c1ccc(C(C)C)cc1Br`, the Ki came to 1.4 nM.

For `CCCCN(CC)c1nc(C)nc2c1nnn2-c1ccc(S(C)(=O)=O)cc1Br`, the inhibition constant Ki was 100 nM.

For `CCCCN(CC)c1nc(C)nc2c1nnn2-c1c(Cl)cc(OC)cc1OC`, the Ki was found to be 4.4 nM.

As to `CCCCN(CC)c1nc(C)nc2c1nc(-c1ccccc1)n2-c1c(Cl)cc(OC)cc1OC`, the Ki stood at 133 nM.

As to `COCCN(CCOC)c1nc(C)nc2c1nnn2-c1ccc(Br)cc1Br`, the Ki turned out to be 7.4 nM.

Take `CCC(CC)Oc1nc(C)nc2c1nnn2-c1ccc(C(C)C)cc1Br`: the Ki is 1.9 nM.

For the molecule `CCCCN(CC)c1nc(C)nc2c1ncn2-c1c(Br)cc(OC)cc1OC`, the inhibitory constant (Ki) was found to be 3.5 nM.

Turning to `COCCN(CCOC)c1cc(C)nc2c1nc(C)n2-c1ccc(C(C)C)cc1Br`, the Ki came out at 9.8 nM.

Consider `COCCN(CCOC)c1nc(C)nc2c1nnn2-c1c(Br)cc(OC)cc1N(C)C`, for which the inhibitory constant (Ki) was determined as 48.2 nM.

As to `COCC(COC)Oc1nc(C)nc2c1nnn2-c1ccc(C(C)C)cc1Br`, the inhibitory constant (Ki) was determined as 7.1 nM.

For the molecule `COCCN(CCOC)c1nc(C)nc2c1c(C)c(C)n2-c1c(C)cc(C)cc1C`, the Ki turned out to be 7.1 nM.

As to `COCCN(CC1CC1)c1nc(C)nc2c1nnn2-c1ccc(C(C)C)cc1Br`, the inhibition constant (Ki) is 4.6 nM.

`CCN(CC)c1nc(C)nc2c1ncn2-c1ccc(C(C)C)cc1Br`: the Ki turned out to be 12.4 nM.

As to `COCCN(CCOC)c1nc(C)nc2c1nnn2-c1ccc(C(C)C)cc1`, the Ki stood at 3920 nM.

As to `CCN(CCOC)c1nc(C)nc2c1nnn2-c1ccc(C(C)C)cc1Br`, the inhibitory constant (Ki) stood at 10.5 nM.

Consider `CCCCNc1nc(C)nc2c1c(C)c(C)n2-c1c(C)cc(C)cc1C`, for which the inhibition constant (Ki) worked out at 29 nM.

For the molecule `CCC(CC)Nc1nc(C)nc2c1nnn2-c1c(C)cc(C)cc1C`, the Ki amounted to 5.7 nM.

In the case of `CCCCN(CC)c1nc(C)nc2c1nnn2-c1ccc(N(C)C)cc1C(F)(F)F`, the inhibition constant Ki is 15.4 nM.

Turning to `CCC(COC)N(C)c1nc(C)nc2c1nnn2-c1ccc(C(C)C)cc1Br` (stereo unspecified), the Ki came out at 11.2 nM.

For `CCCC(CCC)Nc1nc(C)nc2c1nnn2-c1c(C)cc(C)cc1C`, the inhibitory constant (Ki) is 4 nM.

`COCCN(CCOC)c1nc(C)nc2c1ncn2-c1c(C)cc(C)cc1C`: the Ki was found to be 20.7 nM.

For the molecule `CCC(CC)Nc1nc(C)nc2c1nnn2-c1ccc(C(C)C)cc1Br`, the inhibitory constant (Ki) was found to be 5.2 nM.

Turning to `COCCN(CCOC)c1cc(C)nc2c1nnn2-c1ccc(C(C)C)cc1S(C)(=O)=O`, the Ki stood at 476 nM.

Take `CCCCN(CC)c1nc(C)nc2c1ncn2-c1c(Cl)cc(OC)cc1OC`: the inhibition constant Ki is 5.2 nM.

Regarding `CCCCN(CC)c1nc(C)nc2c1c(C)c(C)n2-c1c(C)cc(C)cc1C` [ANTALARMIN], the Ki was determined as 0.84 nM.

With `Cc1nc(N2CCCCC2)c2nnn(-c3ccc(C(C)C)cc3Br)c2n1`, the Ki came out at 46 nM.

Consider `COCCN(CCOC)c1nc(C)nc2c1ncn2-c1c(Br)cc(OC)cc1OC`, for which the Ki came to 31.3 nM.

As to `C=CCN(CCOC)c1nc(C)nc2c1nnn2-c1ccc(C(C)C)cc1Br`, the Ki was 4.3 nM.

Take `CCCCN(CC)c1cc(C)nc2c1nnn2-c1ccc(C(C)C)cc1SC`: the inhibition constant Ki was determined as 2.2 nM.

As for `COCCN(CCOC)c1nc(C)nc2c1nnn2-c1c(Cl)cc(OC)cc1OC`, the Ki was determined as 21 nM.

Regarding `COCCN(CCOC)c1nc(C)nc2c1nnn2-c1c(C)cc(C)cc1C`, the inhibitory constant (Ki) was found to be 24.1 nM.

`CCCCC(CC)Oc1nc(C)nc2c1ncn2-c1ccc(C(C)C)cc1Br` (stereo unspecified): the Ki stood at 2.9 nM.

Consider `CCCCN(CC)c1nc(C)nc2c1ncn2-c1ccc(C(C)C)cc1Br`, for which the inhibitory constant (Ki) amounted to 4.3 nM.

For the molecule `COCCN(CCOC)c1nc(C)nc2c1nnn2-c1ccc(N(C)C)cc1C(F)(F)F`, the Ki was 23.5 nM.

For `CCC(COC)Nc1nc(C)nc2c1nnn2-c1ccc(C(C)C)cc1Br` (stereo in doubt; 4z), the Ki was 9.4 nM.

With `CCCCN(CC)c1nc(C)nc2c1nc(C)n2-c1c(Cl)cc(OC)cc1OC`, the Ki turned out to be 3.5 nM.

With `COCC(C)(C)Nc1nc(C)nc2c1nnn2-c1ccc(C(C)C)cc1Br`, the inhibition constant Ki stood at 195 nM.

Regarding `CCCCN(CC)c1cc(C)nc2c1nc(C)n2-c1ccc(C(C)C)cc1Br`, the Ki came out at 3.9 nM.

For the molecule `COCCN(CCOC)c1ncnc2c1nnn2-c1ccc(C(C)C)cc1Br`, the Ki stood at 203 nM.

As to `CCCC(Nc1nc(C)nc2c1nnn2-c1ccc(C(C)C)cc1Br)C(=O)N(C)C` (stereo unspecified), the Ki turned out to be 235 nM.

`CCOCC(COCC)Oc1nc(C)nc2c1nnn2-c1ccc(C(C)C)cc1Br`: the inhibition constant Ki was 39.7 nM.

As to `CCCCC(CC)Nc1nc(C)nc2c1ncn2-c1ccc(C(C)C)cc1Br` (stereo unspecified), the Ki came out at 5.1 nM.

With `CCCCN(CC)c1nc(C)nc2c1nnn2-c1c(C)cc(C)cc1C`, the inhibition constant Ki amounted to 27.5 nM.

On to `CCCCC(CC)Oc1nc(C)nc2c1nnn2-c1ccc(C(C)C)cc1Br` (stereo unspecified), for which the Ki was 1.5 nM.

Regarding `COCCN(CCOC)c1nc(C)nc2c1nnn2-c1ccc(N(C)C)cc1Br`, the inhibitory constant (Ki) was determined as 10.5 nM.

As for `COCCN(CCOC)c1cc(C)nc2c1nnn2-c1ccc(C(C)C)cc1SC`, the inhibitory constant (Ki) was 4.7 nM.

Consider `CCC(COC)Nc1nc(C)nc2c1nnn2-c1ccc(C(C)C)cc1Br` (stereo in doubt; 4y), for which the Ki was found to be 7.5 nM.

For `CCCCN(CC)c1nc(C)nc2c1nnn2-c1ccc(Br)cc1Br`, the Ki is 20.4 nM.

For the molecule `CCCCN(CC)c1nc(C)nc2c1nnn2-c1ccc(SC)cc1Br`, the Ki stood at 10.6 nM.
